The values below come from PMC8709788, “Mandipropamid as a chemical inducer of proximity for in vivo applications” (Nature Chemical Biology, 2021).

The target in assay [1] is T1, PYL / ABI (ABA CIP system) (Arabidopsis thaliana, UniProt Q8VZS8).
T1 construct: gene PYL1; TOM20-PYL and eGFP-ABI fusions for imaging; with Protein phosphatase 2C 56
T1 sequence (Q8VZS8 33-209 limits assumed): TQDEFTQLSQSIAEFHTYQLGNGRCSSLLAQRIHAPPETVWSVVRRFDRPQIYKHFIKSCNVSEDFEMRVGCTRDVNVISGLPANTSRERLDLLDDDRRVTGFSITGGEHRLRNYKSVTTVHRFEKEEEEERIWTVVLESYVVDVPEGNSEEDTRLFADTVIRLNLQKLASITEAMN
T1 sequence (P49597 126-423 partner limits assumed): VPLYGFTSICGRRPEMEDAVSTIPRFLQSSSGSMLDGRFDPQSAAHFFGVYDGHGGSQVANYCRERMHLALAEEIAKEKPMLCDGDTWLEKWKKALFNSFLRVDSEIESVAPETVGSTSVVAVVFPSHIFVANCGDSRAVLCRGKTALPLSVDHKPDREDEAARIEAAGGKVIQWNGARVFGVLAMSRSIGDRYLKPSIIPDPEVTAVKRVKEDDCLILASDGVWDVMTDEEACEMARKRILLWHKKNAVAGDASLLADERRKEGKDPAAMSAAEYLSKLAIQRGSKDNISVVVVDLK
The experiment in a line: Gal4BD/VP16 induced-proximity luciferase expression assay. In kind it is cell-based. The following applies: COS-7 cells, […] h incubation; induced dimerization of PYL with ABI; text says ABA, legend of Fig. 2e names ABA and also ABA-AM.

For assay [2], the target named is T2, FKBP12 / FRB (rapamycin CIP system) (Homo sapiens, UniProt P42345+P62942).
T2 construct: gene FKBP1A
T2 sequence (P62942 2-108): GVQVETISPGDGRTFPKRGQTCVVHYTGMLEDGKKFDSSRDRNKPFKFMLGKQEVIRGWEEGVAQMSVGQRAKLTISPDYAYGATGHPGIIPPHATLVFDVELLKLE
T2 sequence (P42345 2021-2113 limits assumed): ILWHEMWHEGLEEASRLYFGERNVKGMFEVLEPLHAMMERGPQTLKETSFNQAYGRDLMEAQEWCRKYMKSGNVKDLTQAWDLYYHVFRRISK
The experiment in a line: RSICS fluorescence cross-correlation in living cells. To be noted: COS-7 cells, 15 min, ternary complex FKBP12-rapamycin-FRB. In kind it is cell-based.

As a reminder, the EC50 is the concentration giving half of the maximal effect. In assay [1], (+)-abscisic acid [compound 3] had an EC50 of 30.8 ± 15.5 µM.

`CO[C@H]1C[C@@H]2CC[C@@H](C)[C@@](O)(O2)C(=O)C(=O)N2CCCC[C@H]2C(=O)O[C@H]([C@H](C)C[C@@H]2CC[C@@H](O)[C@H](OC)C2)CC(=O)[C@H](C)/C=C(\C)[C@@H](O)[C@@H](OC)C(=O)[C@H](C)C[C@H](C)/C=C/C=C/C=C/1C` [compound 5, rapamycin]: the “binding efficiency (interacting fraction) at 500 nM” value in assay [2] is 71 ± 3%.
